# Laboratory results taken from patent US9657351B2, “MRNA-based gene expression for personalizing patient cancer therapy with an MDM2 antagonist” (Hoffmann-La Roche Inc., priority 2013, dated 2017).
# “Also recorded” adds a separate entry of the source. Where two headings read alike, the source gives them in different places.
# Assays:
# [1] = system: CELLO/CACTEL human cancer cell lines; assay: COMPOUND A In Vitro Assay, whole CELLO/CACTEL panel (IC50 vs mRNA signature score, TP53 status, tumor type); format: cell-based; conditions: for % Res: resistant IC50>=10; for % Sen: sensitive IC50<=1
# From the text: To generate an MDM2 antagonist therapy predictive signature, the response of MDM2 antagonist therapy in vitro with gene expression profiling (FIG. 1) is combined. A bank of 287 human cancer cell lines, collectively termed the Cell Lines for Oncology/Chugai ACcumulative Tumour EncycLopedia (CELLO/CACTEL), representing a broad array of diverse human cancer tumor types are subject to evaluation using several high-throughput genomic technology platforms. The mutational status of nucleic acids from each cell line is determined by exome sequencing. Messenger RNA (mRNA) expression levels at baseline, prior to MDM2 antagonist therapy, are obtained via RNA sequencing. MDM2 antagonist therapy COMPOUND A, sometimes referred to herein as RG7112, responses are obtained by assays known to those skilled in the art such as RNA sequencing and microarray measurement using Gene Chip Human Genome U133 Plus 2.0 Array. The MDM2 therapy responses are obtained by high throughout screening assays. Depending on their responses to COMPOUND A these cell lines are classified as either sensitive, defined as IC50<=1, or resistant, defined as IC50>=10.
# 281 cells are treated with MDM2 antagonists and the IC50 (therapy response) is generated. The cell lines span a broad range of tumor cell types of derivation.
# To examine the specific prediction power of the mRNA signature score across the studied tumor types, and to make sure the prediction from the signature score is not confounded by tumor lineage, the signature score within each available tumor type in CELLO (Table 7, 7a) is examined.
# The genes are ranked via their fold changes of responder cell lines to non-responder cell lines. Positive genes are defined as those with fold changes higher than 1; whereas negative genes are defined as those with fold changes less than 1. A multivariate logistic regression classifier is then built through a upward model selection procedure to maximize area under the receiver operating characteristic (ROC) curve with 10-fold cross-validation. The mode selection is implemented procedure through R package bestglm.
# [2] = system: patients with relapsed/refractory leukemia (AML); assay: NO21279 Phase 1 leukemia trial, clinical response (CR, MLFS, HI, PD); format: in vivo, human
# Method: The performance of the MDM2 antagonist predictive mRNA response signature is tested in the clinical setting with specimens from the NO21279 leukemia trial (FIG. 1). 28 AML patients treated at the MTD are enrolled and completed pretreatment and C1D10 (cycle 1, day 10) sampling. […] The clinical endpoint in NO21279 was divided into 4 categories: Complete Response (CR), Morphologic Leukemia-Free State (MLFS), Hematologic Improvement (HI), and Progressive Disease (PD). Blood leukemia samples and bone marrow biopsy samples were collected at baseline screening, after a single dose (cycle 1 day 2, C1D2) and on last day of dosing (cycle 1, day 10, C1D10) and isolated via MACS® separation^11. The early pharmacodynamic effect of MDM2 antagonism in blood leukemia samples was assessed by measuring MDM2 RT PCR change between baseline and C1D10. Global gene expression profiles were generated for the peripheral blood leukemia cells and bone marrow biopsy samples obtained at baseline, C1D2 and C1D10.
# In the NO21279 Phase 1 clinical trial, patients with relapsed/refractory leukemia are treated with ascending doses of COMPOUND A. Specimens from subset of patients treated at the MTD (1500 mg BID×10 days) are evaluated as a part of the current gene expression study. Leukemia samples are collected at baseline, cycle 1 day 2 (C1D2) and cycle 1, day 10 (C1D10) and isolated via MACs separation.
# In the NO21279 Phase 1 clinical trial, patients with relapsed/refractory leukemia are treated with ascending doses of RG7112. Specimens from subset of patients treated at the MTD (1500 mg BID×10 days) are evaluated as a part of the current gene expression study. Leukemia samples are collected at baseline, cycle 1 day 2 (C1D2) and cycle 1, day 10 (C1D10) and isolated via MACs separation.
# Clinical responses are evaluated and are divided into 4 categories: Complete Response (CR), Morphologic Leukemia-Free State (MLFS), Hematologic Improvement (HI), and Progressive Disease (PD). […] In addition to assessments of baseline samples, treatment samples are also evaluated (Cycle 1, Day 10).
# P21 = assay: NP21280 solid tumor trial, tumor biopsy biomarker (p21 IHC); format: in vivo, human; conditions: p=2.32×10−3
# Method: The predictive mRNA signature is also evaluated in two solid tumor trials (FIG. 1). […] In both clinical trials, a biomarker package that enabled assessment of p53 pathway activation is assessed (p53 IHC, p21 IHC, MDM2 mRNA, and Ki67), MDM2 inhibition activates the P53 pathway and decreases cell proliferation.
# MDM2 mRNA [3] = assay: NP21280 solid tumor trial, tumor biopsy biomarker (MDM2 mRNA); format: in vivo, human; conditions: at C1D10, p=1.03×10−5
# MDM2 mRNA [4] = conditions: NP22890; at C1D8; as previously reported; cited from earlier work
# [5] = system: Ki-67-positive tumor cells; conditions: NP22890; as previously reported; cited from earlier work
# [6] = Adenocarcinoma cell lines, N 21
# [7] = Adenocarcinoma, colorectal cell lines, N 7
# [8] = Bone marrow cell lines, Number 5
# [9] = Breast, mammary gland cell lines, Number 20
# [10] = Carcinoma, gastric cell lines, N 5
# [11] = Carcinoma, primary ductal cell lines, N 5
# [12] = Carcinoma, squamous cell cell lines, N 12
# [13] = Carcinoma, urinary bladder, transitional cell carcinoma (TCC) cell lines, N 7
# [14] = Intestine, large, colon cell lines, Number 8
# [15] = Leukaemia, acute myeloid cell lines, N 5
# [16] = Lymphocyte cell lines, Number 6
# [17] = Myeloma, multiple cell lines, N 5
# [18] = Neuroblastoma (Glioma, neuroblastoma) cell lines, N 6
# [19] = Urinary, bladder cell lines, Number 8
# [20] = of 28 AML patients treated at the MTD (1500 mg BID×10 days)
structure (smiles),measurement,setting,value
CCOc1cc(C(C)(C)C)ccc1C1=N[C@@](C)(c2ccc(Cl)cc2)[C@@](C)(c2ccc(Cl)cc2)N1C(=O)N1CCN(CCCS(C)(=O)=O)CC1 [COMPOUND A],N (resistant),[1]; [6],17
same,N (sensitive),[1]; [6],4
same,N (resistant),[1]; [7],5
same,N (sensitive),[1]; [7],2
same,% Res,[1]; [8],60.0%
same,% Sen,[1]; [8],40.0%
same,% Res,"[1]; Brain cell lines, Number 10",50.0%
same,% Sen,"[1]; Brain cell lines, Number 10",50.0%
same,% Res,[1]; [9],85.0%
same,% Sen,[1]; [9],15.0%
same,N (resistant),"[1]; Carcinoma cell lines, N 8",6
same,N (sensitive),"[1]; Carcinoma cell lines, N 8",2
same,N (resistant),[1]; [10],3
same,N (sensitive),[1]; [10],2
same,N (resistant),[1]; [11],4
same,N (sensitive),[1]; [11],1
same,N (resistant),[1]; [12],9
same,N (sensitive),[1]; [12],3
same,N (resistant),[1]; [13],6
same,N (sensitive),[1]; [13],1
same,% Res,[1]; [14],62.5%
same,% Sen,[1]; [14],37.5%
same,N (resistant),[1]; [15],3
same,N (sensitive),[1]; [15],2
same,% Res,"[1]; Lung cell lines, Number 41",85.4%
same,% Sen,"[1]; Lung cell lines, Number 41",14.6%
same,% Res,[1]; [16],50.0%
same,% Sen,[1]; [16],50.0%
same,N (resistant),[1]; [17],2
same,N (sensitive),[1]; [17],3
same,N (resistant),[1]; [18],3
same,N (sensitive),[1]; [18],3
same,% Res,"[1]; Ovary cell lines, Number 6",66.7%
same,% Sen,"[1]; Ovary cell lines, Number 6",33.3%
same,% Res,"[1]; Pancreas cell lines, Number 9",100.0%
same,% Sen,"[1]; Pancreas cell lines, Number 9",0.0%
same,% Res,"[1]; Skin cell lines, Number 6",66.7%
same,% Sen,"[1]; Skin cell lines, Number 6",33.3%
same,% Res,"[1]; Stomach cell lines, Number 8",50.0%
same,% Sen,"[1]; Stomach cell lines, Number 8",50.0%
same,% Res,[1]; [19],75.0%
same,% Sen,[1]; [19],25.0%
same,"Response, number of patients with CR","[2]; all 28 patients, NO21279","3CR,"
same,"Response, number of patients with HI","[2]; all 28 patients, NO21279","6 HI,"
same,"Response, number of patients with MLFS","[2]; all 28 patients, NO21279","4 MLFS,"
same,"Response, number of patients with PD","[2]; all 28 patients, NO21279",15 PD
same,Response,"[2]; individual AML patients (no. 1-28), NO21279, MTD 1500 mg BID×10 days, listed as RG7112",CR (Complete Response (CR)); also recorded: MLFS (Morphologic Leukemia-Free State (MLFS)); also recorded: HI (Hematologic Improvement (HI)); also recorded: PD (Progressive Disease (PD))
same,clinical response: number of patients with Complete Response (CR),[2]; [20],3
same,clinical response: number of patients with Hematologic Improvement (HI),[2]; [20],6
same,clinical response: number of patients with Morphologic Leukemia-Free State (MLFS),[2]; [20],4
same,clinical response: number of patients with Progressive Disease (PD),[2]; [20],15
same,P21 concentration change from baseline,P21,significantly increase
same,MDM2 mRNA expression change from baseline,MDM2 mRNA [3],significantly increase
same,MDM2 mRNA expression change from baseline,MDM2 mRNA [4],significantly increase
same,Ki-67-positive tumor cells change from baseline,[5],decreased
